Test results published in the NIST ThermoML archive (doi:10.1016/j.jct.2016.10.034).
± gives the expanded uncertainty stated by the source.

Assay: xn = mol fraction of the nth substance listed
Conditions: 100 kPa, Liquid; for viscosity: Falling or rolling sphere viscometry; for mass density: Vibrating tube method

CC[N+]1(C)CCOCC1.O=C([O-])CO [N-ethyl-N-methylmorpholinium glycolate] + O
Conditions | mass density [kg/m3] | viscosity [mPa·s]
298.15 K, x1 = 0.0933 | 1128.6 ± 1.3 | –
298.15 K, x1 = 0.1688 | 1170.3 ± 1 | 21.4 ± 2.2
298.15 K, x1 = 0.2209 | 1186.5 ± 1 | 43.1 ± 4.4
298.15 K, x1 = 0.288 | 1199.7 ± 1.1 | 95.3 ± 10
298.15 K, x1 = 0.3907 | 1211.3 ± 1.1 | 359 ± 43
298.15 K, x1 = 0.4809 | 1217.5 ± 1.2 | 842 ± 110
298.15 K, x1 = 0.5793 | 1221.9 ± 1.4 | 1779 ± 270
298.15 K, x1 = 0.6669 | 1224.6 ± 1.6 | –
298.15 K, x1 = 0.7573 | 1226.9 ± 1.9 | –
298.15 K, x1 = 0.8256 | 1228 ± 2.1 | –
303.15 K, x1 = 0.0933 | 1125.6 ± 1 | –
303.15 K, x1 = 0.1688 | 1167 ± 1 | 17 ± 1.7
303.15 K, x1 = 0.2209 | 1183.1 ± 1 | 32.9 ± 3.3
303.15 K, x1 = 0.288 | 1196.3 ± 1.1 | 69.7 ± 7.1
303.15 K, x1 = 0.3907 | 1207.9 ± 1.1 | 224 ± 25
303.15 K, x1 = 0.4809 | 1214.1 ± 1.2 | 494 ± 61
303.15 K, x1 = 0.5793 | 1218.5 ± 1.4 | 1005 ± 140
303.15 K, x1 = 0.6669 | 1221.2 ± 1.6 | 1723 ± 260
303.15 K, x1 = 0.7573 | 1223.6 ± 1.9 | –
303.15 K, x1 = 0.8256 | 1224.8 ± 2.1 | –
308.15 K, x1 = 0.0933 | 1122.6 ± 1 | –
308.15 K, x1 = 0.1688 | 1163.7 ± 1 | 13.9 ± 1.4
308.15 K, x1 = 0.2209 | 1179.6 ± 1 | 25.8 ± 2.6
308.15 K, x1 = 0.288 | 1192.8 ± 1.1 | 52.3 ± 5.3
308.15 K, x1 = 0.3907 | 1204.5 ± 1.1 | 158 ± 17
308.15 K, x1 = 0.4809 | 1210.7 ± 1.2 | 339 ± 40
308.15 K, x1 = 0.5793 | 1215.1 ± 1.4 | 678 ± 88
308.15 K, x1 = 0.6669 | 1217.9 ± 1.6 | 1151 ± 160
308.15 K, x1 = 0.7573 | 1220.2 ± 1.9 | 1866 ± 280
308.15 K, x1 = 0.8256 | 1221.5 ± 2.1 | –
313.15 K, x1 = 0.0933 | 1119.5 ± 1 | –
313.15 K, x1 = 0.1688 | 1160.4 ± 1 | 11.3 ± 1.1
313.15 K, x1 = 0.2209 | 1176.2 ± 1 | 20.1 ± 2
313.15 K, x1 = 0.288 | 1189.4 ± 1.1 | 40.5 ± 4.1
313.15 K, x1 = 0.3907 | 1201.1 ± 1.1 | 118 ± 12
313.15 K, x1 = 0.4809 | 1207.3 ± 1.2 | 250 ± 28
313.15 K, x1 = 0.5793 | 1211.8 ± 1.4 | 496 ± 61
313.15 K, x1 = 0.6669 | 1214.6 ± 1.6 | 838 ± 110
313.15 K, x1 = 0.7573 | 1216.9 ± 1.9 | 1354 ± 190
313.15 K, x1 = 0.8256 | 1218.2 ± 2.1 | 1882 ± 280
318.15 K, x1 = 0.0933 | 1116.4 ± 1 | –
318.15 K, x1 = 0.1688 | 1157 ± 1 | 9.61 ± 0.97
318.15 K, x1 = 0.2209 | 1172.8 ± 1 | 16.8 ± 1.7
318.15 K, x1 = 0.288 | 1186 ± 1.1 | 32 ± 3.2
318.15 K, x1 = 0.3907 | 1197.7 ± 1.1 | 85.6 ± 8.8
318.15 K, x1 = 0.4809 | 1204 ± 1.2 | 174 ± 19
318.15 K, x1 = 0.5793 | 1208.5 ± 1.4 | 334 ± 39
318.15 K, x1 = 0.6669 | 1211.2 ± 1.6 | 555 ± 70
318.15 K, x1 = 0.7573 | 1213.7 ± 1.8 | 884 ± 120
318.15 K, x1 = 0.8256 | 1214.9 ± 2.1 | 1219 ± 170
323.15 K, x1 = 0.0933 | 1113.2 ± 1 | –
323.15 K, x1 = 0.1688 | 1153.6 ± 1 | 8.15 ± 0.82
323.15 K, x1 = 0.2209 | 1169.4 ± 1 | 13.9 ± 1.4
323.15 K, x1 = 0.288 | 1182.6 ± 1.1 | 25.5 ± 2.6
323.15 K, x1 = 0.3907 | 1194.3 ± 1.1 | 65.4 ± 6.6
323.15 K, x1 = 0.4809 | 1200.6 ± 1.2 | 130 ± 14
323.15 K, x1 = 0.5793 | 1205.2 ± 1.4 | 246 ± 28
323.15 K, x1 = 0.6669 | 1207.9 ± 1.6 | 405 ± 49
323.15 K, x1 = 0.7573 | 1210.3 ± 1.8 | 642 ± 82
323.15 K, x1 = 0.8256 | 1211.7 ± 2.1 | 882 ± 120
328.15 K, x1 = 0.0933 | 1110 ± 1 | –
328.15 K, x1 = 0.1688 | 1150.2 ± 1 | 6.97 ± 0.7
328.15 K, x1 = 0.2209 | 1166 ± 1 | 11.7 ± 1.2
328.15 K, x1 = 0.288 | 1179.2 ± 1.1 | 20.8 ± 2.1
328.15 K, x1 = 0.3907 | 1191 ± 1.1 | 54 ± 5.4
328.15 K, x1 = 0.4809 | 1197.3 ± 1.2 | 98.6 ± 10
328.15 K, x1 = 0.5793 | 1201.9 ± 1.4 | 179 ± 19
328.15 K, x1 = 0.6669 | 1204.7 ± 1.6 | 283 ± 32
328.15 K, x1 = 0.7573 | 1207 ± 1.8 | 435 ± 53
328.15 K, x1 = 0.8256 | 1208.5 ± 2.1 | 587 ± 74
333.15 K, x1 = 0.0933 | 1106.8 ± 1 | –
333.15 K, x1 = 0.1688 | 1146.8 ± 1 | 6 ± 0.6
333.15 K, x1 = 0.2209 | 1162.6 ± 1 | 9.79 ± 0.98
333.15 K, x1 = 0.288 | 1175.8 ± 1.1 | 17.3 ± 1.7
333.15 K, x1 = 0.3907 | 1187.6 ± 1.1 | 43.4 ± 4.4
333.15 K, x1 = 0.4809 | 1194 ± 1.2 | 77.6 ± 7.9
333.15 K, x1 = 0.5793 | 1198.6 ± 1.4 | 138 ± 15
333.15 K, x1 = 0.6669 | 1201.5 ± 1.6 | 217 ± 24
333.15 K, x1 = 0.7573 | 1203.8 ± 1.8 | 329 ± 38
333.15 K, x1 = 0.8256 | 1205.2 ± 2 | 441 ± 54
338.15 K, x1 = 0.0933 | 1103.5 ± 1 | –
338.15 K, x1 = 0.1688 | 1143.4 ± 1 | 5.2 ± 0.52
338.15 K, x1 = 0.2209 | 1159.2 ± 1 | 8.55 ± 0.86
338.15 K, x1 = 0.288 | 1172.4 ± 1.1 | 14.6 ± 1.5
338.15 K, x1 = 0.3907 | 1184.3 ± 1.1 | 32.4 ± 3.3
338.15 K, x1 = 0.4809 | 1190.7 ± 1.2 | 59 ± 6
338.15 K, x1 = 0.5793 | 1195.4 ± 1.4 | 105 ± 11
338.15 K, x1 = 0.6669 | 1198.3 ± 1.6 | 165 ± 18
338.15 K, x1 = 0.7573 | 1200.8 ± 1.8 | 253 ± 29
338.15 K, x1 = 0.8256 | 1202.1 ± 2 | 340 ± 40
343.15 K, x1 = 0.0933 | 1100.2 ± 1 | –
343.15 K, x1 = 0.1688 | 1140 ± 1 | 4.55 ± 0.46
343.15 K, x1 = 0.2209 | 1155.8 ± 1 | 7.41 ± 0.74
343.15 K, x1 = 0.288 | 1169 ± 1.1 | 12.4 ± 1.2
343.15 K, x1 = 0.3907 | 1181 ± 1.1 | 28.9 ± 2.9
343.15 K, x1 = 0.4809 | 1187.5 ± 1.2 | 49.6 ± 5
343.15 K, x1 = 0.5793 | 1192.2 ± 1.4 | 85.3 ± 8.7
343.15 K, x1 = 0.6669 | 1195.1 ± 1.6 | 131 ± 14
343.15 K, x1 = 0.7573 | 1197.6 ± 1.8 | 195 ± 21
343.15 K, x1 = 0.8256 | 1199 ± 2 | 258 ± 29
348.15 K, x1 = 0.0933 | 1096.8 ± 1.4 | –
348.15 K, x1 = 0.1688 | 1136.6 ± 1.1 | 4.01 ± 0.4
348.15 K, x1 = 0.2209 | 1152.4 ± 1 | 6.46 ± 0.65
348.15 K, x1 = 0.288 | 1165.7 ± 1.1 | 10.7 ± 1.1
348.15 K, x1 = 0.3907 | 1177.7 ± 1.1 | 24.2 ± 2.4
348.15 K, x1 = 0.4809 | 1184.2 ± 1.2 | 40.4 ± 4.1
348.15 K, x1 = 0.5793 | 1189 ± 1.4 | 67.9 ± 6.9
348.15 K, x1 = 0.6669 | 1192 ± 1.6 | 102 ± 11
348.15 K, x1 = 0.7573 | 1194.5 ± 1.8 | 150 ± 16
348.15 K, x1 = 0.8256 | 1195.9 ± 2 | 196 ± 22
